Drawing on the supplement of paper PMC10307832, this text covers relative viability for eight cell lines.

What all share (experiment): relative viability (nuclei count vs DMSO), 5 days (fraction); higher = more cells survive
Compound in experiment [1]: CN[C@@H]1C[C@H]2O[C@@](C)([C@@H]1OC)n1c3ccccc3c3c4c(c5c6ccccc6n2c5c31)C(=O)NC4 [Staurosporine] + COc1cccc2cc(-c3nc([C@H]4CC[C@H](C(=O)O)CC4)n4ncnc(N)c34)[nH]c12 [OSI-027] (partner 0.5 µM)
The method, boiled down: (§1)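 Values are medians from duplicate plates. Each reflects relative viability, defined as the nuclei count of treated wells over that of vehicle wells. Lung cancer cell lines in 1536-well plates were pin-tool dosed one day after seeding with one drug alone or with a fixed anchor-drug dose plus five library-drug doses (not always all listed) in √10 steps, then fixed, stained and imaged at 4× after 5 days.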

Compound in experiment [2]: CC1=C(CC(=O)O)c2cc(F)ccc2/C1=C\c1ccc([S+](C)[O-])cc1 [Sulindac] + Cc1cc(Nc2cc(N3CCN(C)CC3)nc(Sc3ccc(NC(=O)C4CC4)cc3)n2)n[nH]1 [Tozasertib] (partner 0.1 µM)
The method, boiled down: as §1

Compound in experiment [3]: O=c1[nH]cc(F)c(=O)[nH]1 [5-Fluorouracil] + CS(=O)(=O)N1CCN(Cc2cc3nc(-c4cccc5[nH]ncc45)nc(N4CCOCC4)c3s2)CC1 [Pictilisib] (partner 1 µM)
The method, boiled down:
as §1

Compound in experiment [4]: O=c1[nH]cc(F)c(=O)[nH]1 [5-Fluorouracil] + O=C(CCCCCCC(=O)Nc1ccccc1)NO [Vorinostat] (partner 1 µM)
A digest of the protocol:
as §1

For the cell line HCC-44, the relative viability in experiment [1] (first compound 0.005 µM) was determined as 0.358; in experiment [1] (first compound 0.01581 µM), 0.131; in experiment [1] (first compound 0.05 µM), 0.212; in experiment [1] (first compound 0.1581 µM), 0.174; in experiment [1] (first compound 0.5 µM) it was 0.136; in experiment [2] (first compound 0.08 µM), 1.08. In addition, the relative viability in experiment [2] (first compound 0.253 µM) is 1.04; in experiment [2] (first compound 2.53 µM), 0.938; in experiment [2] (first compound 8 µM), 0.981; in experiment [3] (first compound 0.02 µM), 0.784; in experiment [3] (first compound 0.2 µM), 0.58; in experiment [3] (first compound 0.6325 µM), 0.46. Also, the relative viability in experiment [3] (first compound 2 µM) amounted to 0.33; in experiment [4] (first compound 0.02 µM), 1.09; in experiment [4] (first compound 0.2 µM), 1.07; in experiment [4] (first compound 0.6325 µM), 0.824; in experiment [4] (first compound 2 µM) it was 0.544.
With HCC-78, the relative viability in experiment [1] (first compound 0.005 µM) came to 0.361; in experiment [1] (first compound 0.01581 µM) it was 0.37; in experiment [1] (first compound 0.05 µM) it was 0.308; in experiment [1] (first compound 0.1581 µM), 0.336; in experiment [1] (first compound 0.5 µM), 0.296; in experiment [2] (first compound 0.08 µM), 0.445. For the same cell line, the relative viability was 0.476 in experiment [2] (first compound 0.253 µM); 0.403 in experiment [2] (first compound 0.8 µM); 0.42 in experiment [2] (first compound 2.53 µM); 0.367 in experiment [2] (first compound 8 µM); 0.236 in experiment [3] (first compound 0.02 µM); 0.182 in experiment [3] (first compound 0.2 µM). Moreover, the relative viability stood at 0.181 in experiment [3] (first compound 0.6325 µM); 0.463 in experiment [4] (first compound 0.02 µM); 0.426 in experiment [4] (first compound 0.2 µM); 0.325 in experiment [4] (first compound 0.6325 µM); 0.232 in experiment [4] (first compound 2 µM).
Regarding HCC-366, the relative viability in experiment [1] (first compound 0.005 µM) came out at 0.952; in experiment [1] (first compound 0.05 µM), 0.463; in experiment [1] (first compound 0.1581 µM), 0.0332; in experiment [1] (first compound 0.5 µM) it was 0.0243; in experiment [2] (first compound 0.08 µM), 0.104; in experiment [2] (first compound 0.253 µM), 0.148. The relative viability was 0.199 in experiment [2] (first compound 0.8 µM); 0.111 in experiment [2] (first compound 2.53 µM); 0.198 in experiment [2] (first compound 8 µM); 0.166 in experiment [3] (first compound 0.02 µM); 0.156 in experiment [3] (first compound 0.2 µM); 0.108 in experiment [3] (first compound 0.6325 µM). The relative viability in experiment [3] (first compound 2 µM) was determined as 0.0793; in experiment [4] (first compound 0.02 µM), 0.371; in experiment [4] (first compound 0.2 µM) it was 0.365; in experiment [4] (first compound 0.6325 µM), 0.156; in experiment [4] (first compound 2 µM) it was 0.0639.
Regarding HCC-827, the relative viability in experiment [1] (first compound 0.005 µM) came to 0.875; in experiment [1] (first compound 0.01581 µM) it was 0.672; in experiment [1] (first compound 0.05 µM) it was 0.476; in experiment [1] (first compound 0.1581 µM) it was 0.383; in experiment [1] (first compound 0.5 µM), 0.211; in experiment [2] (first compound 0.08 µM), 0.485. For the same cell line, the relative viability in experiment [2] (first compound 0.253 µM) is 0.432; in experiment [2] (first compound 0.8 µM), 0.435; in experiment [2] (first compound 2.53 µM), 0.418; in experiment [2] (first compound 8 µM), 0.466; in experiment [3] (first compound 0.02 µM), 0.749; in experiment [3] (first compound 0.2 µM), 1.03. For the same cell line, the relative viability was 0.656 in experiment [3] (first compound 0.6325 µM); 0.478 in experiment [3] (first compound 2 µM); 0.556 in experiment [4] (first compound 0.02 µM); 0.697 in experiment [4] (first compound 0.2 µM); 0.348 in experiment [4] (first compound 0.6325 µM); 0.272 in experiment [4] (first compound 2 µM).
Regarding HOP-62, the relative viability was found to be 0.554 in experiment [1] (first compound 0.005 µM); 0.225 in experiment [1] (first compound 0.01581 µM); 0.125 in experiment [1] (first compound 0.05 µM); 0.112 in experiment [1] (first compound 0.1581 µM); 0.0933 in experiment [1] (first compound 0.5 µM); 0.409 in experiment [2] (first compound 0.08 µM). For the same cell line, the relative viability was determined as 0.41 in experiment [2] (first compound 0.253 µM); 0.386 in experiment [2] (first compound 2.53 µM); 0.426 in experiment [2] (first compound 8 µM); 0.711 in experiment [3] (first compound 0.02 µM); 0.879 in experiment [3] (first compound 0.2 µM); 0.705 in experiment [3] (first compound 0.6325 µM). For the same cell line, the relative viability was determined as 0.569 in experiment [3] (first compound 2 µM); 0.629 in experiment [4] (first compound 0.02 µM); 0.699 in experiment [4] (first compound 0.2 µM); 0.626 in experiment [4] (first compound 0.6325 µM); 0.509 in experiment [4] (first compound 2 µM).
For the cell line IA-LM, the relative viability in experiment [3] (first compound 0.02 µM) is 0.459; in experiment [3] (first compound 0.2 µM), 0.286; in experiment [3] (first compound 0.6325 µM), 0.256; in experiment [3] (first compound 2 µM), 0.209; in experiment [4] (first compound 0.02 µM) it was 0.906; in experiment [4] (first compound 0.2 µM) it was 0.659. For the same cell line, the figures for the relative viability in experiment [4] (first compound 0.6325 µM) and in experiment [4] (first compound 2 µM) were 0.274 and 0.25, respectively.
On to LC-2-ad, for which the relative viability is 0.807 in experiment [1] (first compound 0.005 µM); 0.25 in experiment [1] (first compound 0.01581 µM); 0.342 in experiment [1] (first compound 0.05 µM); 0.216 in experiment [1] (first compound 0.1581 µM); 0.199 in experiment [1] (first compound 0.5 µM); 0.382 in experiment [2] (first compound 0.08 µM). Also, the relative viability is 0.451 in experiment [2] (first compound 0.253 µM); 0.374 in experiment [2] (first compound 0.8 µM); 0.391 in experiment [2] (first compound 2.53 µM); 0.46 in experiment [2] (first compound 8 µM); 0.57 in experiment [3] (first compound 0.02 µM); 0.442 in experiment [3] (first compound 0.2 µM). For the same cell line, the relative viability was 0.324 in experiment [3] (first compound 0.6325 µM); 0.231 in experiment [3] (first compound 2 µM); 0.697 in experiment [4] (first compound 0.02 µM); 0.589 in experiment [4] (first compound 0.2 µM); 0.42 in experiment [4] (first compound 0.6325 µM); 0.256 in experiment [4] (first compound 2 µM).
In the case of LCLC-97TM1, the relative viability in experiment [1] (first compound 0.005 µM) was determined as 0.343; in experiment [1] (first compound 0.01581 µM), 0.234; in experiment [1] (first compound 0.05 µM) it was 0.245; in experiment [1] (first compound 0.1581 µM) it was 0.203; in experiment [1] (first compound 0.5 µM), 0.198; in experiment [2] (first compound 0.08 µM), 0.231. In addition, the relative viability turned out to be 0.289 in experiment [2] (first compound 0.253 µM); 0.217 in experiment [2] (first compound 0.8 µM); 0.163 in experiment [2] (first compound 2.53 µM); 0.247 in experiment [2] (first compound 8 µM); 0.184 in experiment [3] (first compound 0.02 µM); 0.235 in experiment [3] (first compound 0.2 µM). Moreover, the relative viability in experiment [3] (first compound 0.6325 µM) is 0.133; in experiment [3] (first compound 2 µM), 0.139; in experiment [4] (first compound 0.02 µM), 0.575; in experiment [4] (first compound 0.2 µM), 1.07; in experiment [4] (first compound 0.6325 µM) it was 0.857; in experiment [4] (first compound 2 µM) it was 0.272.
